Measured values taken from ChEMBL document CHEMBL1158111, “Bohemamines from a marine-derived Streptomyces sp” (J Nat Prod, 2006).
Calls of active or inactive are those of the source. No cut-off for these calls is given here.

Tested on: HCT-116
Assay: Growth inhibition of human HCT116 cells
Assay type: functional, cell-based

Structure (SMILES)	Activity
CC(C)=CC(=O)NC1=CC(=O)[C@]2(C)[C@H](O)[C@@H](Cl)[C@H](C)N12	inactive
CC(C)=CC(=O)NC1=CC(=O)[C@]2(C)C[C@H](O)[C@H](C)N12	inactive
CC(C)=CC(=O)NC1=CC(=O)[C@]2(C)[C@@H]3O[C@@H]3[C@H](C)N12	inactive
CC(C)=CC(=O)NC1=CC(=O)[C@]2(C)[C@H](O)C[C@H](C)N12	inactive
